Source: patent US20250195513A1, “DEGRADATION OF IRAK4 BY CONJUGATION OF IRAK4 INHIBITORS WITH E3 LIGASE LIGAND AND METHODS OF USE” (BeiGene, Ltd., priority 2022, published 2025)

Tests used:
IRAK4 [1] = target: T1, IRAK4 (Homo sapiens, UniProt Q9NWZ3); assay: IRAK4 Degradation Assay with Human Serum (Karpas299, HTRF/TR-FRET); format: cell-based; conditions: Karpas-299 in human serum, 24 hrs treatment; for DC50: read-out: IRAK4 degradtion with human serum assay DC50; for Dmax: read-out: IRAK4 degradtion with human serum assay Dmax (%)
T1 construct: endogenous in cells; host or cells: Karpas299
T1 sequence (Q9NWZ3 1-460): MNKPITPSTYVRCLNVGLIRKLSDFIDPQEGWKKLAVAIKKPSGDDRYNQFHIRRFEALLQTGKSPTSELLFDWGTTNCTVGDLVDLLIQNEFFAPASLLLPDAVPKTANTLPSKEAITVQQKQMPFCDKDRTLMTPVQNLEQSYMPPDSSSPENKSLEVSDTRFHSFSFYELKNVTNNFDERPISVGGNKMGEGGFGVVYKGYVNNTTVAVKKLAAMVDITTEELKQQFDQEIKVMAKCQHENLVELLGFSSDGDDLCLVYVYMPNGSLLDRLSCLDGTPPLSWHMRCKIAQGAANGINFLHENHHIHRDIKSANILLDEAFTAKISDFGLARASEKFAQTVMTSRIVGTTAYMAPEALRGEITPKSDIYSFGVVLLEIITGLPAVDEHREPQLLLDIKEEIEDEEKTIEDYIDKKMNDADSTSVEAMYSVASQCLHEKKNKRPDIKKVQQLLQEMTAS
Outline: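 Remaining IRAK4 measured by TR-FRET immunoassay on lysates of Karpas299 cells exposed 24 h to compound dilution series in human serum AB. DC50 derived from a Hill-slope fit of % degradation versus concentration.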

IRAK4 [2] = target: T1, IRAK4; assay: IRAK4 Degradation Assay (Karpas299, HTRF/TR-FRET); format: cell-based; conditions: Karpas-299 cells; for Dmax: maximum percentage of degradation
Outline: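 Compound potency as DC50 (IC50) came from four-parameter fits of percent IRAK4 degradation. IRAK4 was measured by HTRF (665/620 nm) in lysates of Karpas299 cells seeded at 0.2 million per well. Cells had been treated with compound dilutions for 5 or 24 h.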

[3] = 24 h treatment, read-out: IRAK4 in Karpas-299 (24 h) Dmax (%)
[4] = 24 h treatment, read-out: IRAK4 in Karpas-299 (24 h) DC50
[5] = 5 h treatment, read-out: IRAK4 in Karpas-299 (5 h) Dmax (%)
[6] = 5 h treatment, read-out: IRAK4 in Karpas-299 (5 h) DC50

Row | DC50 (IRAK4 [1]) | Dmax (IRAK4 [1]) | Dmax (IRAK4 [2]; [3]) | DC50 (IRAK4 [2]; [4]) | Dmax (IRAK4 [2]; [5]) | DC50 (IRAK4 [2]; [6]) | Structure (SMILES)
1 | 5 nM | 93% | 97% | 4.3 nM |  |  | CC(C)(O)c1cc2nn(C3CCC(N4C[C@@H]5CN(C6CCN(c7cc(F)c([C@H]8CCC(=O)NC8=O)c(F)c7)CC6)C[C@H]5C4)CC3)cc2cc1NC(=O)c1ccc2cc(C#N)cnn12 (stereo partly drawn) [Example 361, 3-cyano-N-(2-((1R,4r)-4-((3aR,6aR)-5-(1-(4-((R)-2,6-dioxopiperidin-3-yl)-3,5-difluorophenyl)piperidin-4-yl)hexahydropyrrolo[3,4-c]pyrrol-2(1H)-yl)cyclohexyl)-6-(2-hydroxypropan-2-yl)-2H-indazol-5-yl)pyrrolo[1,2-b]pyridazine-7-carboxamide]
2 | 2.4 nM | 102% | 96% | 0.9 nM |  |  | C[C@@H]1CN(CC2CN(c3cc(F)c([C@H]4CCC(=O)NC4=O)c(F)c3)C2)CCN1[C@H]1CC[C@H](n2cc3cc(NC(=O)c4ccc5cc(C#N)cnn45)c(C(C)(C)O)cc3n2)CC1 [Example 300, 3-cyano-N-(2-((1R,4r)-4-((R)-4-((1-(4-((R)-2,6-dioxopiperidin-3-yl)-3,5-difluorophenyl)azetidin-3-yl)methyl)-2-methylpiperazin-1-yl)cyclohexyl)-6-(2-hydroxypropan-2-yl)-2H-indazol-5-yl)pyrrolo[1,2-b]pyridazine-7-carboxamide]
3 | 11 nM | 96% | 98% | 0.4 nM |  |  | CC(C)(O)c1cc2nn([C@H]3CC[C@H](N4CCN(C[C@H]5C[C@H](c6cc(F)c([C@H]7CCC(=O)NC7=O)c(F)c6)C5)CC4)CC3)cc2cc1NC(=O)c1ccc2cc(C#N)cnn12 [Example 382, 3-cyano-N-(2-((1R,4r)-4-(4-(((1R,3R)-3-(4-((R)-2,6-dioxopiperidin-3-yl)-3,5-difluorophenyl)cyclobutyl)methyl)piperazin-1-yl)cyclohexyl)-6-(2-hydroxypropan-2-yl)-2H-indazol-5-yl)pyrrolo[1,2-b]pyridazine-7-carboxamide]
4 | 15 nM | 97% | 95% | 0.8 nM |  |  | CC(C)(O)c1cc2nn([C@H]3CC[C@H](CN4CCN(C5CN(c6cc(F)c([C@H]7CCC(=O)NC7=O)c(F)c6)C5)CC4)CC3)cc2cc1NC(=O)c1ccc2cc(C#N)cnn12 [Example 421, 3-cyano-N-(2-((1r,4r)-4-((4-(1-(4-((R)-2,6-dioxopiperidin-3-yl)-3,5-difluorophenyl)azetidin-3-yl)piperazin-1-yl)methyl)cyclohexyl)-6-(2-hydroxypropan-2-yl)-2H-indazol-5-yl)pyrrolo[1,2-b]pyridazine-7-carboxamide]
5 | 7.8 nM | 96% | 97% | 1.2 nM | 96% | 2.7 nM | CC(C)(O)c1cc2nn([C@H]3CC[C@H](N4CCN(C(=O)C5CN(c6ccc(C7CCC(=O)NC7=O)nc6)C5)CC4)CC3)cc2cc1NC(=O)c1ccc2cc(C#N)cnn12 (stereo partly shown) [Example 255, 3-cyano-N-(2-((1r,4r)-4-(4-(1-(6-(2,6-dioxopiperidin-3-yl)pyridin-3-yl)azetidine-3-carbonyl)piperazin-1-yl)cyclohexyl)-6-(2-hydroxypropan-2-yl)-2H-indazol-5-yl)pyrrolo[1,2-b]pyridazine-7-carboxamide]
6 | 14 nM | 98% | 94% | 2.1 nM |  |  | COC[C@H]1CN(C2CN(c3cc(F)c([C@H]4CCC(=O)NC4=O)c(F)c3)C2)CCN1[C@H]1CC[C@H](n2cc3cc(NC(=O)c4ccc5cc(C#N)cnn45)c(C(C)(C)O)cc3n2)CC1 [Example 323, 3-cyano-N-(2-((1R,4r)-4-((R)-4-(1-(4-((R)-2,6-dioxopiperidin-3-yl)-3,5-difluorophenyl)azetidin-3-yl)-2-(methoxymethyl)piperazin-1-yl)cyclohexyl)-6-(2-hydroxypropan-2-yl)-2H-indazol-5-yl)pyrrolo[1,2-b]pyridazine-7-carboxamide]
7 | 5.5 nM | 99% | 97% | 1.4 nM | 93% | 1.6 nM | CC(C)(O)c1cc2nn(C3CCN(C4CCN(C(=O)C5CN(c6cc(F)c([C@H]7CCC(=O)NC7=O)c(F)c6)C5)CC4)CC3)cc2cc1NC(=O)c1ccc2cc(C#N)cnn12 [Example 346, (R)-3-cyano-N-(2-(1′-(1-(4-(2,6-dioxopiperidin-3-yl)-3,5-difluorophenyl)azetidine-3-carbonyl)-[1,4′-bipiperidin]-4-yl)-6-(2-hydroxypropan-2-yl)-2H-indazol-5-yl)pyrrolo[1,2-b]pyridazine-7-carboxamide]
8 | 11 nM | 98% | 97% | 0.9 nM |  |  | CC(C)(O)c1cc2nn([C@H]3CC[C@H](N4CCN(C[C@@H]5CCN(c6cc(F)c([C@H]7CCC(=O)NC7=O)c(F)c6)C5)CC4)CC3)cc2cc1NC(=O)c1ccc2cc(C#N)cnn12 [Example 392, 3-cyano-N-(2-((1S,4r)-4-(4-(((S)-1-(4-((R)-2,6-dioxopiperidin-3-yl)-3,5-difluorophenyl)pyrrolidin-3-yl)methyl)piperazin-1-yl)cyclohexyl)-6-(2-hydroxypropan-2-yl)-2H-indazol-5-yl)pyrrolo[1,2-b]pyridazine-7-carboxamide]
9 | 5.2 nM | 94% | 95% | 1.5 nM |  |  | CC(C)(O)c1cc2nn(C34CC(N5CCN(CCc6cc(F)c([C@H]7CCC(=O)NC7=O)c(F)c6)CC5)(C3)C4)cc2cc1NC(=O)c1ccc2cc(C#N)cnn12 [Example 159, (R)-3-cyano-N-(2-(3-(4-(4-(2,6-dioxopiperidin-3-yl)-3,5-difluorophenethyl)piperazin-1-yl)bicyclo[1.1.1]pentan-1-yl)-6-(2-hydroxypropan-2-yl)-2H-indazol-5-yl)pyrrolo[1,2-b]pyridazine-7-carboxamide]
10 | 3.5 nM | 88% | 95% | 0.8 nM |  |  | CC(C)(O)c1cc2nn([C@H]3CC[C@H](N4CCN(CC5CCN(c6ccc7c(c6)CN(C6CCC(=O)NC6=O)C7=O)CC5)CC4)CC3)cc2cc1NC(=O)c1ccc2cc(C#N)cnn12 (stereo partly shown) [Example 353, 3-cyano-N-(2-((1r,4r)-4-(4-((1-(2-(2,6-dioxopiperidin-3-yl)-1-oxoisoindolin-5-yl)piperidin-4-yl)methyl)piperazin-1-yl)cyclohexyl)-6-(2-hydroxypropan-2-yl)-2H-indazol-5-yl)pyrrolo[1,2-b]pyridazine-7-carboxamide]
11 | 7.4 nM | 94% | 94% | 1.2 nM |  |  | CC(C)(O)c1cc2nn(C34CC(N5CCN(CC6CCN(c7ccc8c(c7)CN(C7CCC(=O)NC7=O)C8=O)CC6)CC5)(C3)C4)cc2cc1NC(=O)c1ccc2cc(C#N)cnn12 (stereo not shown) [Example 401, 3-cyano-N-(2-(3-(4-((1-(2-(2,6-dioxopiperidin-3-yl)-1-oxoisoindolin-5-yl)piperidin-4-yl)methyl)piperazin-1-yl)bicyclo[1.1.1]pentan-1-yl)-6-(2-hydroxypropan-2-yl)-2H-indazol-5-yl)pyrrolo[1,2-b]pyridazine-7-carboxamide]
12 | 21 nM | 99% | 97% | 2.6 nM |  |  | CC(C)(O)c1cc2nn([C@H]3CC[C@H](N4CCN(C(=O)C5CN(c6ccc(N7CCC(=O)NC7=O)cc6)C5)CC4)CC3)cc2cc1NC(=O)c1ccc2cc(C#N)cnn12 [Example 265, 3-cyano-N-(2-((1r,4r)-4-(4-(1-(4-(2,4-dioxotetrahydropyrimidin-1(2H)-yl)phenyl)azetidine-3-carbonyl)piperazin-1-yl)cyclohexyl)-6-(2-hydroxypropan-2-yl)-2H-indazol-5-yl)pyrrolo[1,2-b]pyridazine-7-carboxamide]
13 | 7.1 nM | 100% | 98% | 1.1 nM | 93% | 1.6 nM | CC(C)(O)c1cc2nn([C@H]3CC[C@H](N4CCN(CCNc5cc(F)c(C6CCC(=O)NC6=O)c(F)c5)CC4)CC3)cc2cc1NC(=O)c1ccc2cc(C#N)cnn12 (stereo partly shown) [Example 135, 3-cyano-N-(2-((1r,4r)-4-(4-(2-((4-(2,6-dioxopiperidin-3-yl)-3,5-difluorophenyl)amino)ethyl)piperazin-1-yl)cyclohexyl)-6-(2-hydroxypropan-2-yl)-2H-indazol-5-yl)pyrrolo[1,2-b]pyridazine-7-carboxamide]
